Reference: PubChem BioAssay AID1241 (SRMLSC, 2008)

test: compounds inducing NF-kB luciferase expression – cell-based, SH-SY5Y, dose response (AID 1241); conditions: SH-SY5Y NF-kB promoter luciferase reporter, fold induction

Structure (SMILES) | EC50 [nM]
Cc1ccccc1-c1cc(-c2ccccc2O)on1 | 9680
O=C(/C=C\Nc1cccc(F)c1)c1cccs1 | 347
CCOc1ccc2nc(N3CCCCCC3)sc2c1 | 3690
COc1cccc(NC(=O)Nc2ccc3c(c2)nc(C)n3C)c1 | 9300
Cc1ccsc1/C=N/Nc1nc2ccccc2[nH]1 | 8260
Cc1ccc(S/C=C\C(=O)c2ccccc2)cc1 | 1960
NS(=O)(=O)c1cc(C(=O)OCC(=O)c2ccc3c(c2)OCCO3)ccc1Cl | 3470
O/C(=C\c1ccc2ccccc2n1)c1ccc(O)cc1O | 954
COc1ccc2nc(SCc3ccccc3)nc(C)c2c1 | 6570
COc1cccc(-c2noc(-c3ccc4c(c3)OCO4)n2)c1 | 506
CCC(=O)NC(c1ccccc1OC)c1ccc2cccnc2c1O (configuration not stated) | 8390
C(=N\Nc1nc2ccccc2s1)/c1ccco1 | 2320
COc1ccc(C(=O)/C=C2\Sc3ccccc3N2C)cc1 | 1750
Cc1ccc(Cc2cnc(NC(=O)c3cccs3)s2)cc1 | 4960
CCCCc1ccc(-c2ccc(C)cc2O)nc1 | 3250
CCOC(=O)c1sc(NC(=O)c2sccc2C)cc1C | 952
COc1ccc(N=Cc2sc(O)c3ccccc23)cc1 | 992
COc1ccc(-c2cc(=O)c3cc(OC)ccc3o2)cc1 | 3920
O=C(Nc1ccc2c(c1)CCC2)c1ccc(F)cc1 | 217
COc1ccc(OCc2cccc(C(=O)O)c2)cc1 | 964
Fc1cccc(C2NN=C(c3ccccc3)S2)c1 (configuration not stated) | 9650
N/C(=N\OC(=O)COc1ccc(Cl)cc1Cl)c1ccccn1 | 1190
CCOC(=O)c1nn(-c2ccc(Br)cc2)cc1C(=O)c1cccc2ccccc12 | 3000

Structure (SMILES) | EC50 [nM]
COc1ccccc1/C=C/C(=O)Nc1ccc2c(c1)OCCO2 | 1190
O=C(NC(=S)Nc1ccc2c(c1)OCCO2)c1ccccc1F | 1740
CC1=NC(=O)C(N=Nc2cccc(C(=O)O)c2)N1c1ccccc1 (configuration not stated) | 781
COc1ccc(-c2ccc3ccccc3n2)cc1 | 651
Cc1cc(N/C=C/C(=O)c2cccs2)ccc1F | 2220
CCOc1ccc(OCc2cccc(C(=O)O)c2)cc1 | 1850
N#Cc1cccc(NCC(=O)Nc2ccc3c(c2)OCCO3)c1 | 6600
Cc1ccc(-c2noc(-c3cccs3)n2)cc1 | 2290
Oc1c(C(Nc2ccccn2)c2ccccn2)ccc2cccnc12 (configuration not stated) | 3990
Fc1ccccc1SCc1nnc(-c2ccccc2Br)o1 | 818
COCCNc1nc(-c2cc3ccccc3o2)cs1 | 1400
CCOC(=O)c1sc(=NC(=O)c2cccs2)n(C)c1C | 778
CCCCOC(=O)Nc1nc2ccccc2s1 | 3470
CC(=O)Nc1cccc(-c2csc(Nc3ccc(C)cn3)n2)c1 | 702
Cc1nn2cc(-c3ccccc3)nc2s1 | 2030
COc1cccc(C(=O)/C=C/Nc2cc(C)ccc2O)c1 | 5510
Cc1nc2c(ccc3nc(NC(=O)c4ccc5c(c4)OCCO5)sc32)s1 | 784
CSCCNC(=O)c1ccc(C(C)(C)C)cc1 | 5250
COC(=O)c1ccc(-c2nc3ccccc3[nH]2)cc1 | 946
Cc1nn(-c2ccc([N+](=O)[O-])cc2)c(N)c1-c1ccccc1 | 6720
COc1cc(/C=N/O)ccc1OCc1ccc(Cl)cc1 | 882
CCOC(=O)c1c(N)sc(C(=O)Nc2ccc3c(c2)OCO3)c1C | 871
Fc1ccc(-c2cnn3c(-c4ccncc4)ccnc23)cc1 | 1240

Structure (SMILES) | EC50 [nM]
c1ccc2oc(-c3csc(NCC4CCCO4)n3)cc2c1 (configuration not stated) | 2540
CC(=O)Nc1nc2ccc(-c3nc4ccccc4o3)cc2s1 | 1460
COC(=O)c1sc2nc3c(cc2c1N)CCCC3 | 4060
CCCCc1ccc(-c2nc(-c3ccncc3)no2)cc1 | 4140
O=C(N/N=C/C(Br)=C/c1ccccc1)c1cccs1 | 18200
CCS/C(N)=N/N=C/c1cc(C)ccc1O | 3310
CN=c1scc(C)n1/N=C/c1ccc(O)cc1 | 15600
CC(/C=N/NC(=O)c1cccs1)=C\c1ccccc1 | 2310
CCN(CC)S(=O)(=O)c1cc(C(=O)OCC(=O)Nc2ccc(-c3nc4ccc(C)cc4s3)cc2)ccc1F | 516
CC(=O)Oc1ccc(Oc2ccc(-c3noc(C)n3)cc2)cc1 | 2840
Cc1ccc2nc(-c3ccc(NC(=O)COC(=O)c4ccc(=O)[nH]c4)cc3)sc2c1 | 660
COc1ccc2[nH]c3c(c2c1)CCn1c-3nc2ccccc2c1=O | 185
N/C(=N\OC(=O)c1cccc(Cl)c1)c1ccccn1 | 1950
N#C/C(=C/c1ccco1)c1nc2ccccc2s1 | 1970
O=C(Nc1ccc2c(c1)CCC2)c1cc2ccccc2o1 | 2410
CN1/C(=C/C(=O)c2cccs2)Sc2ccccc21 | 685
Cc1ccc2nc(-c3ccc(NS(=O)(=O)c4ccc(F)c(F)c4)cc3)sc2c1 | 3620
Cc1ccc(-c2nc(Nc3ccccc3)n[nH]2)cc1 | 2290
O=C(/C=C\Nc1ccc2c(c1)OCO2)c1ccc2c(c1)OCO2 | 996
CCOC(=O)c1c(N)sc(C(=O)Nc2ccccc2F)c1C | 1920
CCc1ccc(C(=O)/C=C/c2cnn(C)c2C)s1 | 7900
